From US9556215B2, “Synthetic pentasaccharides having short half-life and high activity” (CARBOMIMETICS, priority 2011, dated 2017)

How the values were obtained:
[1] = cited from earlier work
[2] = Pharmacokinetic study after intravenous administration (half-life of elimination); type: in vivo, female Wistar Han rats; conditions: plasma concentration by anti-factor Xa bioassay
Method: Quantification of Compounds in Plasma
Rat plasmatic concentration of compounds (μg compound/mL plasma) was determined using a bioassay based on their anti-factor Xa activity (Stachrom HP kit, Diagnostica Stago as described above). This assay was carried out on a STA Compact (Diagnostica Stago). A specific calibration curve was preformed with each compound to be quantified in rat plasma.
Pharmacokinetic Study after Intravenous Administration (Half-Life of Elimination, T½)
The pharmacokinetics of the compounds of the present invention were investigated in female Wistar Han rats after intravenous administration.
Blood samples were taken at various time points and blood (9 volumes) was mixed with sodium citrate (1 volume) and cooled immediately on ice. The sample was subjected to a centrifugation at 3000×g for 10 minutes at low temperature (the plasma is typically stable for 24 h at temperature below 8° C.) and stored frozen at −20° C. Concentration of compound (per mL of plasma) was determined by their anti-factor Xa activity using factor Xa activity as described above.
For each compound, the half-life of elimination was calculated from the concentration versus time curve thus obtained.

[3] = target: T1, factor Xa in the presence of AT (Homo sapiens, UniProt P01008); experiment: Determination of anti-factor Xa activity (IC50), Stachrom HP kit; type: biochemical; conditions: factor Xa inhibition in the presence of AT
T1 construct: purchased Diagnostica Stago Stachrom HP kit
T1 sequence (P01008 33-464): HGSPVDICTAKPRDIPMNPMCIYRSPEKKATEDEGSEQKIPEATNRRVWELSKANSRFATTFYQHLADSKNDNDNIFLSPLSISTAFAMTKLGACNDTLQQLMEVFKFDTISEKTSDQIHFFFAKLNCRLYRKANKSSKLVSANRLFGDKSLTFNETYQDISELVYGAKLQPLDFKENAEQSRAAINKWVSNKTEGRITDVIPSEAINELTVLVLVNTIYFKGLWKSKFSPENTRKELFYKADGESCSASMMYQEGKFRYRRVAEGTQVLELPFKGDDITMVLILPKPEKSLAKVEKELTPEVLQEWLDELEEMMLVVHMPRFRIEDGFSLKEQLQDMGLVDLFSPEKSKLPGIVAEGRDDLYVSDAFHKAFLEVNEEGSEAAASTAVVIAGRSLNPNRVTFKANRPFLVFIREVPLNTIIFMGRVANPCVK
Method: In the description of exemplified compounds, “IC50” represents the anti-factor Xa activity.
Determination of Anti-Factor Xa Activity of Compounds (IC50)
The compounds were compared as to their ability of inhibiting factor Xa in the presence of AT under standard conditions. For each compound a curve was plotted representing the inhibition % vs. concentration. The concentration inhibiting 50% of the factor Xa activity (IC50) was determined. A commercially available system was used for this purpose: compoundStachrom HP kit (Diagnostica Stago). This assay was carried out on a STA Compact (Diagnostica Stago).

Row | T1/2 (Rat), half-life of elimination [2] | IC50 [3] | half-life ([2]; female, Wistar Han, rat, read-out: T1/2 (Rat), half-life of elimination (converted)) | SMILES | half-life in human [1]
1 |  |  |  | CO[C@H]1O[C@H](COS(=O)(=O)O)[C@@H](O[C@@H]2O[C@@H](C(=O)O)[C@@H](O[C@H]3O[C@H](COS(=O)(=O)O)[C@@H](O[C@@H]4O[C@H](C(=O)O)[C@@H](O[C@H]5O[C@H](COS(=O)(=O)O)[C@@H](O)[C@H](O)[C@H]5NS(=O)(=O)O)[C@H](O)[C@H]4O)[C@H](OS(=O)(=O)O)[C@H]3NS(=O)(=O)O)[C@H](O)[C@H]2OS(=O)(=O)O)[C@H](O)[C@H]1NS(=O)(=O)O [Fondaparinux sodium] | 17 h
2 | 4.8 ± 0.5 h | 108 nM |  | CCCCCCOC1C(COS(=O)(=O)O)OC(OC2C(OC)C(OC)C(OC3C(COS(=O)(=O)O)OC(OC4C(OC)C5OCC4(C(=O)O)OC5OC4C(COS(=O)(=O)O)OC(OC)C(OS(=O)(=O)O)C4OC)C(OS(=O)(=O)O)C3OS(=O)(=O)O)OC2(CC)C(=O)O)C(N)C1OCCCCCC (centres unmarked) [Compound PA02] | 
3 |  | 34 nM | 210 ± 18 min | CCC1(C(=O)O)OC(OC2C(COS(=O)(=O)O)OC(OC3C(OC)C4OCC3(C(=O)O)OC4OC3C(COS(=O)(=O)O)OC(OC)C(OS(=O)(=O)O)C3OC)C(OS(=O)(=O)O)C2OS(=O)(=O)O)C(OC)C(OC)C1OC1OC(COS(=O)(=O)O)C(OC)C(OC)C1OC (centres unmarked) [Compound PA01] | 
